Source: ChEMBL document CHEMBL4800732, “Data for DCP probe TP-040” (2021)

Legend:
[1] = target: Sodium-dependent dopamine transporter (Homo sapiens, UniProt Q01959); conditions: Compound concentration 10.0 uM
[2] = target: 5-hydroxytryptamine receptor 2C (Homo sapiens) (UniProt P28335); conditions: Compound concentration 10.0 uM
[3] = target: 5-hydroxytryptamine receptor 5A (Homo sapiens, UniProt P47898); conditions: Compound concentration 10.0 uM
[4] = target: 5-hydroxytryptamine receptor 3A (Homo sapiens) (UniProt P46098); conditions: Compound concentration 10.0 uM
[5] = target: T1, GABA-A receptor; anion channel (Rattus norvegicus) (UniProt O09028+P15431+P18506+P18508+P19969+P20236+P23574+P23576+P28471+P28473+P30191+P62813+P63079+P63138+Q91ZM7+Q9ES14); conditions: Compound concentration 10.0 uM
[6] = target: T2, Alpha-2B adrenergic receptor (Homo sapiens, UniProt P18089); assay: GPCRScan assay: inhibition of Alpha2B; parameters: radioligand conc. used [nm] 1.5 – 2.0, parental cells HEKT
T2 sequence (P18089 whole entry): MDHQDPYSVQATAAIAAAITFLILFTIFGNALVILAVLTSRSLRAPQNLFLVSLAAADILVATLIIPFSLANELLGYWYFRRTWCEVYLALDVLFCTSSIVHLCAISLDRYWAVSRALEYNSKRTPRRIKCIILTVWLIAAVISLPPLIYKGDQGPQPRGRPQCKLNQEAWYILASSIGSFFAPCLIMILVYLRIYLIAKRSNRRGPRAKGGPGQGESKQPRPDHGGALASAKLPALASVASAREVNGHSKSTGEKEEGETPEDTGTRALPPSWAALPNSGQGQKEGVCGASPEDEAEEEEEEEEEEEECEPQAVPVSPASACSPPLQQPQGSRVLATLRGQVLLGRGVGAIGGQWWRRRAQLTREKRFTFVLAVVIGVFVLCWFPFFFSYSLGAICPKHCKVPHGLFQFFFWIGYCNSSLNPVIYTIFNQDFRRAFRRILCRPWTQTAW

[7] = target: D(1A) dopamine receptor (Homo sapiens) (UniProt P21728); conditions: Compound concentration 10.0 uM
[8] = target: Alpha-1A adrenergic receptor (Homo sapiens) (UniProt P35348); conditions: Compound concentration 10.0 uM
[9] = target: 5-hydroxytryptamine receptor 1B (Homo sapiens) (UniProt P28222); conditions: Compound concentration 10.0 uM
[10] = target: Delta-type opioid receptor (Homo sapiens) (UniProt P41143); conditions: Compound concentration 10.0 uM
[11] = target: D(3) dopamine receptor (Homo sapiens) (UniProt P35462); conditions: Compound concentration 10.0 uM
[12] = target: 5-hydroxytryptamine receptor 2A (Homo sapiens, UniProt P28223); conditions: Compound concentration 10.0 uM
[13] = target: Alpha-2C adrenergic receptor (Homo sapiens) (UniProt P18825); conditions: Compound concentration 10.0 uM
[14] = target: T3, 5-hydroxytryptamine receptor 1D (Homo sapiens, UniProt P28221); assay: GPCRScan assay: inhibition of 5-HT1D; parameters: radioligand conc. used [nm] 1.0 – 2.0, parental cells HEKT
[15] = target: Histamine H3 receptor (Homo sapiens, UniProt Q9Y5N1); conditions: Compound concentration 10.0 uM
[16] = target: Muscarinic acetylcholine receptor M5 (Homo sapiens) (UniProt P08912); conditions: Compound concentration 10.0 uM
[17] = target: Sigma intracellular receptor 2 (Homo sapiens, UniProt Q5BJF2); conditions: Compound concentration 10.0 uM
[18] = target: Muscarinic acetylcholine receptor M3 (Homo sapiens) (UniProt P20309); conditions: Compound concentration 10.0 uM
[19] = target: D(4) dopamine receptor (Homo sapiens) (UniProt P21917); conditions: Compound concentration 10.0 uM
[20] = target: Sodium-dependent serotonin transporter (Homo sapiens) (UniProt P31645); conditions: Compound concentration 10.0 uM
[21] = target: T4, 5-hydroxytryptamine receptor 2B (Homo sapiens, UniProt P41595); conditions: Compound concentration 10.0 uM
[22] = target: T1, GABA-A receptor; anion channel (Rattus norvegicus); conditions: Compound concentration 10.0 uM; remark: listed apart in the source
[23] = target: T3, 5-hydroxytryptamine receptor 1D; conditions: Compound concentration 10.0 uM
[24] = species: Rattus norvegicus; conditions: Compound concentration 10.0 uM
[25] = target: T5, Sodium-dependent noradrenaline transporter (Homo sapiens, UniProt P23975); conditions: Compound concentration 10.0 uM
[26] = target: 5-hydroxytryptamine receptor 1E (Homo sapiens) (UniProt P28566); conditions: Compound concentration 10.0 uM
[27] = target: D(2) dopamine receptor (Homo sapiens) (UniProt P14416); conditions: Compound concentration 10.0 uM
[28] = target: T4, 5-hydroxytryptamine receptor 2B; assay: GPCRScan assay: inhibition of 5-HT2B; parameters: radioligand conc. used [nm] 1.0 – 2.0, parental cells stable HEK
[29] = target: Sigma non-opioid intracellular receptor 1 (Homo sapiens, UniProt Q99720); conditions: Compound concentration 10.0 uM
[30] = target: Alpha-2B adrenergic receptor (Homo sapiens) (UniProt P18089); conditions: Compound concentration 10.0 uM
[31] = target: 5-hydroxytryptamine receptor 1A (Homo sapiens) (UniProt P08908); conditions: Compound concentration 10.0 uM
[32] = target: 5-hydroxytryptamine receptor 7 (Homo sapiens, UniProt P34969); conditions: Compound concentration 10.0 uM
[33] = target: Muscarinic acetylcholine receptor M2 (Homo sapiens) (UniProt P08172); conditions: Compound concentration 10.0 uM
[34] = target: Kappa-type opioid receptor (Homo sapiens) (UniProt P41145); conditions: Compound concentration 10.0 uM
[35] = target: Alpha-2A adrenergic receptor (Homo sapiens) (UniProt P08913); conditions: Compound concentration 10.0 uM
[36] = target: T5, Sodium-dependent noradrenaline transporter; assay: GPCRScan assay: inhibition of NET; parameters: radioligand conc. used [nm] 1.3 – 5.0, parental cells stable HEK
[37] = target: Alpha-1B adrenergic receptor (Homo sapiens) (UniProt P35368); conditions: Compound concentration 10.0 uM
[38] = target: Beta-1 adrenergic receptor (Homo sapiens) (UniProt P08588); conditions: Compound concentration 10.0 uM
Sequence of Beta-1 adrenergic receptor (Homo sapiens) (P08588 whole entry, looked up): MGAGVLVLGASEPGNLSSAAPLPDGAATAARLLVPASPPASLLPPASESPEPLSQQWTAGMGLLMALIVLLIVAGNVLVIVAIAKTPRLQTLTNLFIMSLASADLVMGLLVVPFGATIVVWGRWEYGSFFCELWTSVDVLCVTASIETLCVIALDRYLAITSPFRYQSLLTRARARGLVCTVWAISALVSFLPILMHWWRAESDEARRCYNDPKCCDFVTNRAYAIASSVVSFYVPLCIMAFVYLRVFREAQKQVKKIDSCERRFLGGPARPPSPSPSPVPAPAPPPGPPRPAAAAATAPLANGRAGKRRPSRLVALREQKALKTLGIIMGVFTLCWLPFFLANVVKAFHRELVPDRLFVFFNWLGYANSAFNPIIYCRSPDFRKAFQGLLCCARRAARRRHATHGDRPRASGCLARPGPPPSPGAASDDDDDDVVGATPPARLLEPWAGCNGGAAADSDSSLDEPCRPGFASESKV

T5 sequence (P23975 whole entry): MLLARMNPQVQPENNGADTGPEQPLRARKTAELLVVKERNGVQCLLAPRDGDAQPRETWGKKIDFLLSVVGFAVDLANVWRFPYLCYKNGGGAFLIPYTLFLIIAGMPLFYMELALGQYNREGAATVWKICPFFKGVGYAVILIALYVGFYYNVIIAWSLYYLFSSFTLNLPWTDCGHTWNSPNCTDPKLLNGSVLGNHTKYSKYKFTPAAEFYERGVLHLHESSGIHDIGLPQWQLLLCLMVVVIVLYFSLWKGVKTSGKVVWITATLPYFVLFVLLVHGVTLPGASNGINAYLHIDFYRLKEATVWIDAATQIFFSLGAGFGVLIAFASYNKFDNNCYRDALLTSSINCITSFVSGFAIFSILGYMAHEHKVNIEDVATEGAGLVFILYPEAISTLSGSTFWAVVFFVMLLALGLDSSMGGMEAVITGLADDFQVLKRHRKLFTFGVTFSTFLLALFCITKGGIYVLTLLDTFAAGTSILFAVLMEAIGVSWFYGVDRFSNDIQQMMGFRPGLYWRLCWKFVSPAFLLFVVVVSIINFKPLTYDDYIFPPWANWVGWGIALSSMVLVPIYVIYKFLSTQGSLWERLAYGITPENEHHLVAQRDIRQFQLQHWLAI
T4 sequence (P41595 whole entry): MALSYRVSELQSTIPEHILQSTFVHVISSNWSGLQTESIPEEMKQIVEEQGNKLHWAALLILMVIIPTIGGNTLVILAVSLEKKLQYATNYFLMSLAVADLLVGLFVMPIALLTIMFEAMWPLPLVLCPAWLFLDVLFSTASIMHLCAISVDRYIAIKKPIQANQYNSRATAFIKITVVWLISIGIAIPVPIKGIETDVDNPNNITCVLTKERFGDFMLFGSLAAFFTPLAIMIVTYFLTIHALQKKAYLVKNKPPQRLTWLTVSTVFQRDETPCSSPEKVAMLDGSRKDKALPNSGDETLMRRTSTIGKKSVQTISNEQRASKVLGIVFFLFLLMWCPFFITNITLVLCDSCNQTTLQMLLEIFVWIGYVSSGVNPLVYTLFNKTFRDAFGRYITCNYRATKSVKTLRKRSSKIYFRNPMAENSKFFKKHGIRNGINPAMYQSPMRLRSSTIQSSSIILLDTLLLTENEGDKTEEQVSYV
T3 sequence (P28221 whole entry): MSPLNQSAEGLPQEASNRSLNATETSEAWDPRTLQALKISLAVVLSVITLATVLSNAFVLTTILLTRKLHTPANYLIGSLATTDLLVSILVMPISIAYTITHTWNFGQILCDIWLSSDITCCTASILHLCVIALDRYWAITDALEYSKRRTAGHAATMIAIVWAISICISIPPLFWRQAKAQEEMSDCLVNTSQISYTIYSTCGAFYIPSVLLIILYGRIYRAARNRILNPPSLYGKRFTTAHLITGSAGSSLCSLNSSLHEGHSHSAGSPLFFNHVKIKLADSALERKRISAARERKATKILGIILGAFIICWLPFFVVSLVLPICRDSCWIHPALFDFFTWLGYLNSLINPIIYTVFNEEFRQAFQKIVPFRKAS
Sequence of Delta-type opioid receptor (Homo sapiens) (P41143 whole entry): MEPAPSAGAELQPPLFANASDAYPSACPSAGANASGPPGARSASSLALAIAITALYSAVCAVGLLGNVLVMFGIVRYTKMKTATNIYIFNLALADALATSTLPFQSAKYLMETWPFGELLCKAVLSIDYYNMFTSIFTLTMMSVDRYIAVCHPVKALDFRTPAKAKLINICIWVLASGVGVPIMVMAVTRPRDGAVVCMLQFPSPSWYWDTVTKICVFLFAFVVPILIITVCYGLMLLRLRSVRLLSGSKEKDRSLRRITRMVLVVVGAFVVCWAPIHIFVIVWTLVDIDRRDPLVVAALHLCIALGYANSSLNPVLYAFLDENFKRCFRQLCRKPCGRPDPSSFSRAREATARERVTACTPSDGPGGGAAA
Sequence of Muscarinic acetylcholine receptor M3 (Homo sapiens) (P20309 whole entry, looked up): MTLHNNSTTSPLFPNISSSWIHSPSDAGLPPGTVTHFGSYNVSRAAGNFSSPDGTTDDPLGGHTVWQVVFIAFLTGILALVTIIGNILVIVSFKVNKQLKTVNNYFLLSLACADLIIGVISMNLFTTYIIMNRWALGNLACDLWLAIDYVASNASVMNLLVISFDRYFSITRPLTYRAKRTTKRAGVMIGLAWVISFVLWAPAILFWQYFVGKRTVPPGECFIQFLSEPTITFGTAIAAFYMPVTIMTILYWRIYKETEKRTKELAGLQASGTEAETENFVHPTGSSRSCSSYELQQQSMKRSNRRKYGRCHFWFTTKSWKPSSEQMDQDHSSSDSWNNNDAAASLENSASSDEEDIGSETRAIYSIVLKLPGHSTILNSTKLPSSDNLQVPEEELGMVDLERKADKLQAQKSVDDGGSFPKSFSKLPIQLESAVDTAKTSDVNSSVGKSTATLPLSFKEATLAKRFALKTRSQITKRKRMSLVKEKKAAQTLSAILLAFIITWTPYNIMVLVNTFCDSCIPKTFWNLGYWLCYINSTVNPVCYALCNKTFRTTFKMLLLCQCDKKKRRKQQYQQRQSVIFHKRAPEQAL
Sequence of D(1A) dopamine receptor (Homo sapiens) (P21728 whole entry): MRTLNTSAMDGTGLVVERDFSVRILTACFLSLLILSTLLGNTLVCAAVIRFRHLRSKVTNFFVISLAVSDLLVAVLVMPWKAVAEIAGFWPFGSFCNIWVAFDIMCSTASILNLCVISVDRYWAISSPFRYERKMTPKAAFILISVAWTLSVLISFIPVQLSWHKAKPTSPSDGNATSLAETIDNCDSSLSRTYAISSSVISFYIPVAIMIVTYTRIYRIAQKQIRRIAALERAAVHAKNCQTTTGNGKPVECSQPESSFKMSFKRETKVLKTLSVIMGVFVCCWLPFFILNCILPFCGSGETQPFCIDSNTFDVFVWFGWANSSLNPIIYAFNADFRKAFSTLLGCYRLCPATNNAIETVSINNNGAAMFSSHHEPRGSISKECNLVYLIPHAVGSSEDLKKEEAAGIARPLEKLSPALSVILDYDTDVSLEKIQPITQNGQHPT
Sequence of Sodium-dependent dopamine transporter (Q01959 whole entry): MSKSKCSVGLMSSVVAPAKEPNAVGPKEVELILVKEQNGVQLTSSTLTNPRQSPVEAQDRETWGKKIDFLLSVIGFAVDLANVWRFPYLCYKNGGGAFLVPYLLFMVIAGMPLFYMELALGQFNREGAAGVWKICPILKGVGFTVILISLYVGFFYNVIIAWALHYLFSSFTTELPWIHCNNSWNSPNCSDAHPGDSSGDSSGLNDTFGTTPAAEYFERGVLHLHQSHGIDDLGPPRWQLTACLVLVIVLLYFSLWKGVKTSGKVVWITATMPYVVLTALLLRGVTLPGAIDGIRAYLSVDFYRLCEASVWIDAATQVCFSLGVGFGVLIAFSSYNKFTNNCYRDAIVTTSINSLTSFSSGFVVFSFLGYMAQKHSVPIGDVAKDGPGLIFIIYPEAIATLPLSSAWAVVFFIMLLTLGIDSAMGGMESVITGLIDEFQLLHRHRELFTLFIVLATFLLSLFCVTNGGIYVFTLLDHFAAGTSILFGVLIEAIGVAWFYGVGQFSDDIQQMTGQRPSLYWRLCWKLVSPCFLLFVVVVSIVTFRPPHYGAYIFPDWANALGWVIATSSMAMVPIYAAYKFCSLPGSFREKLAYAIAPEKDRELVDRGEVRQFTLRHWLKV
Sequence of 5-hydroxytryptamine receptor 1A (Homo sapiens) (P08908 whole entry): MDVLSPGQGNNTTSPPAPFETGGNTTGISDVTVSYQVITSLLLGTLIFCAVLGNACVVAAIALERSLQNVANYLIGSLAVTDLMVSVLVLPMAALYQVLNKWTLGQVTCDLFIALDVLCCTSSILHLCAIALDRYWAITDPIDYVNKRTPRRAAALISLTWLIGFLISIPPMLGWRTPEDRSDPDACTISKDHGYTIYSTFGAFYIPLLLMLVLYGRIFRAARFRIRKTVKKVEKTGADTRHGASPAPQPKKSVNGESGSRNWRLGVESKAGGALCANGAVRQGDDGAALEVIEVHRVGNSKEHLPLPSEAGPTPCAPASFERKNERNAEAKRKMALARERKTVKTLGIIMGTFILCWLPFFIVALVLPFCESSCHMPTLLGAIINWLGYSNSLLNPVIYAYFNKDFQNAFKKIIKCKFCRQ
Sequence of Muscarinic acetylcholine receptor M5 (Homo sapiens) (P08912 whole entry): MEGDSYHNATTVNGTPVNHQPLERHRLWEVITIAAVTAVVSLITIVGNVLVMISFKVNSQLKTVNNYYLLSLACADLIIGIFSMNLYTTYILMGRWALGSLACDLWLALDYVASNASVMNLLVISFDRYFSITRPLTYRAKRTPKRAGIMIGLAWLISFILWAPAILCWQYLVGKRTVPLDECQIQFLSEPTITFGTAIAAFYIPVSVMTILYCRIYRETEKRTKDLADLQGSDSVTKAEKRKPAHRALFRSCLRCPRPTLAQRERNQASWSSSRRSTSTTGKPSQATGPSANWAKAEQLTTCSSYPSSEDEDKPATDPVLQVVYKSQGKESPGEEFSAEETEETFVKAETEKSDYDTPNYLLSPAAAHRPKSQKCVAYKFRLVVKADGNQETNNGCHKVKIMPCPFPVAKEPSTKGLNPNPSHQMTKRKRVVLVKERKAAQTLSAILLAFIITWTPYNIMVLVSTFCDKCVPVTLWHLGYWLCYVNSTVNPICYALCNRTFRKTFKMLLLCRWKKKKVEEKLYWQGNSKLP

**Q.** With `CC1CCN(c2ccnc(NCc3cn(C)cn3)n2)CC1` [TP-040] as the molecule, how does the inhibition [1] read?
**A.** 20.6%

**Q.** And the inhibition [2]?
**A.** 89.2%

**Q.** And the inhibition [3]?
**A.** 24%

**Q.** What about the inhibition [4] of the same molecule?
**A.** 27.7%

**Q.** And the inhibition [5]?
**A.** 67.4%

**Q.** What about the Ki ([6]; read-out: Ki) of the same molecule?
**A.** 2570 nM

**Q.** And the inhibition [7]?
**A.** -8.84%

**Q.** And the inhibition [8]?
**A.** 15.4%

**Q.** What about the inhibition [9] of the same molecule?
**A.** 24.4%

**Q.** And the inhibition [10]?
**A.** 4.65%

**Q.** And the inhibition [11]?
**A.** 47%

**Q.** What about the inhibition [12] of the same molecule?
**A.** 33.8%

**Q.** What about the inhibition [13] of the same molecule?
**A.** 51.8%

**Q.** And the Ki ([14]; read-out: Ki)?
**A.** 417 nM

**Q.** What about the Ki ([14]; read-out: pKi (converted)) of the same molecule?
**A.** 631 nM

**Q.** What about the inhibition [15] of the same molecule?
**A.** 35.1%

**Q.** And the inhibition [16]?
**A.** 25.1%

**Q.** What about the inhibition [17] of the same molecule?
**A.** 33.6%

**Q.** And the inhibition [18]?
**A.** 7.48%

**Q.** What about the inhibition [19] of the same molecule?
**A.** 3.89%

**Q.** And the inhibition [20]?
**A.** 5.83%

**Q.** What about the inhibition [21] of the same molecule?
**A.** 81.8%

**Q.** And the inhibition [22]?
**A.** 2.33%

**Q.** And the inhibition [23]?
**A.** 81.9%

**Q.** What about the inhibition [24] of the same molecule?
**A.** 17.9%

**Q.** What about the inhibition [25] of the same molecule?
**A.** 75.8%

**Q.** What about the inhibition [26] of the same molecule?
**A.** 3.36%

**Q.** What about the inhibition [27] of the same molecule?
**A.** 4.96%

**Q.** And the Ki ([28]; read-out: Ki)?
**A.** 699 nM

**Q.** What about the inhibition [29] of the same molecule?
**A.** 36.6%

**Q.** What about the inhibition [30] of the same molecule?
**A.** 56.3%

**Q.** What about the inhibition [31] of the same molecule?
**A.** 30%

**Q.** And the inhibition [32]?
**A.** 34.6%

**Q.** And the inhibition [33]?
**A.** 7.21%

**Q.** What about the inhibition [34] of the same molecule?
**A.** 36.6%

**Q.** And the inhibition [35]?
**A.** 12.8%

**Q.** And the Ki ([36]; read-out: Ki)?
**A.** 1940 nM

**Q.** And the Ki ([36]; read-out: pKi (converted))?
**A.** 1910 nM

**Q.** What about the inhibition [37] of the same molecule?
**A.** -5.62%

**Q.** What about the inhibition [38] of the same molecule?
**A.** 3.97%

**Q.** What does the source list for `CN1CCN(c2ccnc(NCCc3ccccc3)n2)CC1` [TP-040n]?
**A.** inhibition [1]: 98%; inhibition [2]: 94.8%; inhibition [3]: 59.8%; inhibition [4]: 22.4%; inhibition [5]: 22.9%; Ki ([6]; read-out: Ki): 475 nM; Ki ([6]; read-out: pKi (converted)): 427 nM; inhibition [7]: 26.5%; inhibition [8]: 19.2%; inhibition [9]: 45.9%; inhibition [10]: 8.02%; inhibition [11]: 22.6%; inhibition [12]: 72.9%; inhibition [13]: 96.8%; Ki ([14]; read-out: Ki): 2040 nM; Ki ([14]; read-out: pKi (converted)): 1820 nM; inhibition [15]: 86.2%; inhibition [16]: 6.46%; inhibition [17]: 77.2%; inhibition [18]: -3.28%; inhibition [19]: 13%; inhibition [20]: 35.8%; inhibition [21]: 91.7%; inhibition [22]: 34.6%; inhibition [23]: 53.2%; inhibition [24]: -0.34%; inhibition [25]: 93.8%; inhibition [26]: 19.5%; inhibition [27]: 20.6%; Ki ([28]; read-out: Ki): 291 nM; Ki ([28]; read-out: pKi (converted)): 282 nM; inhibition [29]: 98.8%; inhibition [30]: 98%; inhibition [31]: 26.7%; inhibition [32]: 92.4%; inhibition [33]: -1.51%; inhibition [34]: 23.7%; inhibition [35]: 34.6%; Ki ([36]; read-out: Ki): 3110 nM; Ki ([36]; read-out: pKi (converted)): 3020 nM; inhibition [37]: 22.1%; inhibition [38]: 6.05%
